# According to patent US8097440B1, “Engineered microorganisms capable of producing target compounds under anaerobic conditions” (Gevo, Inc., priority 2008, dated 2012):
# Changes are numbered by the printed parent chain.
# Legend:
# [1] = target: T1, E. coli KARI Ec_IlvC variant Ec_IlvC^B8-his6 (Q110V, S78D), SEQ ID NO: 27 (Escherichia coli, UniProt P05793, Q110V/S78D); experiment: KARI cuvette assay, purified Ec_IlvC^B8-his6; assay type: biochemical
# T1 sequence (P05793 with tags, fused parts or gaps S78D/Q110V): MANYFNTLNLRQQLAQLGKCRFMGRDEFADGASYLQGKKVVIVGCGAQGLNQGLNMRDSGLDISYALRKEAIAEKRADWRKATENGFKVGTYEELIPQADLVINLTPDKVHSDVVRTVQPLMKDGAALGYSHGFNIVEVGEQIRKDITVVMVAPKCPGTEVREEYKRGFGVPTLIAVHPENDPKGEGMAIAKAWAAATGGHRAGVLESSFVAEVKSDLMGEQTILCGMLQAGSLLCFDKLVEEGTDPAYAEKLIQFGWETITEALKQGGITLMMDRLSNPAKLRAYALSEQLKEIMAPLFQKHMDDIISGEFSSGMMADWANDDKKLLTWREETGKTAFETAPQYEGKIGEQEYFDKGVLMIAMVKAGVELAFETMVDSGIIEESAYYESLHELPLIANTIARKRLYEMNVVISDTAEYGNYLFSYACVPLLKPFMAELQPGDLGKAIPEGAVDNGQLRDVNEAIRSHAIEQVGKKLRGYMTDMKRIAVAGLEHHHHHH
# Procedure: (§1) KARI cuvette assay: KARI activity was assayed kinetically by monitoring the decrease in NAD(P)H concentration by measuring the absorbance at 340 nm. A reaction buffer was prepared containing 250 mM potassium phosphate pH 7, 1 mM DTT and 10 mM MgCl2. Cell pellets were resuspended (0.25 g wet weight/mL buffer) in 250 mM potassium phosphate (KPi) buffer containing 1 mM DTT and 10 mM MgCl2. The resuspended cells were lysed by sonication for 1 min with a 50% duty cycle and pelleted at 11000×g and 4° C. for 15 min. A reaction mixture consisting of 910 μl reaction buffer, 50 μl acetolactate, and 20 μl lysate was prepared in a cuvette. The reaction was initiated by addition of 20 μL of 10 mM NAD(P)H. A substrate free control was conducted using reaction buffer without the addition of acetolactate.
# (§2) Purification of KARI: Cell pellets used for purification were resuspended in purification buffer A (20 mM Tris, 20 mM imidazol, 100 mM NaCl, 10 mM MgCl2, pH 7.4). KARI was purified by IMAC (Immobilized metal affinity chromatography) over a 1 ml Histrap High Performance (histrap HP) column pre-charged with Nickel (GE Healthcare) using an Akta FPLC system (GE Healthcare). […]
# [2] = target: T2, E. coli KARI Ec_IlvC variant Ec_IlvC^B8A71S-his6 (Q110V, S78D, A71S), SEQ ID NO: 29 (Escherichia coli, UniProt P05793, A71S/Q110V/S78D); experiment: KARI cuvette assay, purified Ec_IlvC^B8A71S-his6; assay type: biochemical
# T2 sequence (P05793 with tags, fused parts or gaps A71S/S78D/Q110V): T1 sequence (P05793 with tags, fused parts or gaps S78D/Q110V) with A71S
# Procedure: as §1, §2
# [3] = purified, acetolactate as substrate
# [4] = relative to Ec_IlvC^his6 with NADPH
smiles,measurement,setting,value
"NC(=O)C1=CN([C@@H]2O[C@H](COP(=O)(O)OP(=O)(O)OC[C@H]3O[C@@H](n4cnc5c(N)ncnc54)[C@H](O)[C@@H]3O)[C@@H](O)[C@H]2O)C=CC1 [NADH, nicotinamide adenine dinucleotide]",kcat/KM,[1]; [3],31775 M⁻¹ s⁻¹
same,(kcat/KM with NADH)/(kcat/KM of Ec_IlvC^his6 with NADPH),[1]; [4],36%
same,kcat/KM,[2]; [3],38330 M⁻¹ s⁻¹
same,(kcat/KM with NADH)/(kcat/KM of Ec_IlvC^his6 with NADPH),[2]; [4],44%
